Converted amounts (≈) assume the structure as drawn.
Assays:
[1] = AUC in mouse at 3 mg/kg, po measured after 24 hrs; format: ADME, organism-based; design: route oral, dose 3 mg/kg, time 24 hrs; conditions: in vivo
[2] = Antiproliferative activity against human JJN-3R cells assessed as reduction in cell viability; format: functional, cell-based
[3] = Metabolic stability in monkey liver microsomes assessed as half life measured upto 120 mins; format: ADME, Microsome; conditions: macaca
[4] = Metabolic stability in mouse liver microsomes assessed as half life measured upto 120 mins; format: ADME, Microsome
[5] = Metabolic stability in dog liver microsomes assessed as half life measured upto 120 mins; format: ADME, Canis lupus familiaris, Microsome
[6] = Metabolic stability in rat liver microsomes assessed as half life measured upto 120 mins; format: ADME, Microsome
[7] = Metabolic stability in human liver microsomes assessed as half life measured upto 120 mins; format: ADME, Microsome
[8] = biological target: Bromodomain-containing protein 4 (Homo sapiens, UniProt O60885); experiment: Inhibition of BRD4 (unknown origin)
[9] = Permeability of the compound by PAMPA; format: ADME; conditions: read-out: permeability
[10] = Anticancer activity against human TNBC cancer tissue xenografted PDTX mouse model assessed as tumor growth inhibition at 4 mg/kg, po treated 5-day on/2-day off regimen for 2 weeks after 27 days of tumor implantation; format: functional; conditions: Breast carcinoma cell, 336 h, read-out: TGI
[11] = Anticancer activity against human TNBC cancer tissue xenografted PDTX po dosed mouse model assessed as growth inhibition treated 5-day on/2-day off regimen for 2 weeks after 27 days of tumor implantation; format: functional; conditions: Breast carcinoma cell, 336 h, read-out: MED
[12] = Metabolic stability in human liver microsomes assessed as compound remaining; format: ADME, Microsome
[13] = Metabolic stability in rat liver microsomes assessed as compound remaining; format: ADME, Microsome
[14] = Metabolic stability in mouse liver microsomes assessed as compound remaining; format: ADME, Microsome
[15] = Solubility of the compound in pH 6.5 phosphate buffer; format: physicochemical

Row | Compound | AUC at 24 h [1] [µM·h] | IC50 [2] [nM] | half-life [3] [min] | half-life [4] [min] | half-life [5] [min] | half-life [6] [min] | half-life [7] [min] | IC50 [8] [nM] | Papp [9] [×10⁻⁶ cm/s] | inhibition in vivo at 4 mg/kg [10] [%] | minimal effective dose [11] [mg/kg] | Stability [12] [%] | Stability [13] [%] | Stability [14] [%] | solubility [15] [µg/mL]
1 | Cc1sc2c(c1C)C(c1ccc(Cl)cc1)=N[C@@H](CC(=O)OC(C)(C)C)c1nnc(C)n1-2 | 7.4 | – | – | – | – | – | – | – | – | – | – | – | – | – | –
2 | [2H]C([2H])([2H])c1nnn(C)c1-c1cc2c(cc1Cl)c1ncc(C(C)(C)O)cc1n2[C@H](c1ccccc1)C1CCOCC1 | – | 260 | – | – | – | – | – | – | – | – | – | – | – | – | –
3 | [2H]C([2H])([2H])c1nnn(C)c1-c1cc2c(cc1F)c1ncc(C(C)(C)O)cc1n2[C@@H](CCC)c1ncccc1F | – | 2.4 | 36 | 53 | 14 | 37 | 74 | 0.5 | – | – | – | – | – | – | –
4 | [2H]C([2H])([2H])c1nnn(C)c1-c1cc2c(cn1)c1ncc(C(C)(C)O)cc1n2[C@H](c1ccccc1)C1CCOCC1 | – | 22 | 92 | 120 | 120 | 46 | 120 | – | – | – | – | – | – | – | –
5 | [2H]C([2H])([2H])c1nnn(C)c1-c1cc2c(cc1F)c1ncc(C(C)(C)O)cc1n2[C@H](c1ncccc1F)C1CCOCC1 | 11.1 | 5.3 | 21 | 32 | 22 | 87 | 95 | 0.6 | 55 | 76 | 4 | – | – | – | –
6 | Cc1nnn(C)c1-c1ccc2c3ncc(C(C)(C)O)cc3n([C@H](c3ccccc3)C3CCOCC3)c2c1F | – | 4.5 | – | – | – | – | – | 4 | – | – | – | 7 | 3 | 72 | –
7 | Cc1nnn(C)c1-c1cc2c(cc1F)c1ncc(C(C)(C)O)cc1n2[C@H](c1ccccc1)C1CCOCC1 | – | 6.2 | 9 | 21 | 22 | 7 | 25 | 1.3 | – | – | – | – | – | – | –
8 | Cc1nnn(C)c1-c1ccc2c3ncc(C(C)(C)O)cc3n([C@H](c3ccccc3)C3CCOCC3)c2c1 | – | 1.8 | 4 | 11 | 15 | 3 | 7 | 0.6 | – | – | – | – | – | – | –
9 | [2H]C([2H])([2H])c1nnn(C)c1-c1cc2c(cc1F)c1ncc(C(C)(C)O)cc1n2[C@H](c1cc(C)on1)C1CCOCC1 | – | 12 | 12 | 31 | 53 | 1 | 61 | 0.6 | 30 | – | – | – | – | – | –
10 | Cc1nnn(C)c1-c1cc(F)c2c3ncc(C(C)(C)O)cc3n([C@H](c3ccccc3)C3CCOCC3)c2c1 | – | 51 | 5 | 26 | 29 | 10 | 9 | 0.7 | – | – | – | – | – | – | –
11 | [2H]C([2H])([2H])c1nnn(C)c1-c1cc2c(cc1F)c1ncc(C(C)(C)O)cc1n2[C@H](c1ccccc1)C1CCOCC1 | 10 | 7.6 | 14 | 46 | 46 | 9 | 54 | 0.4 | 84 | – | – | – | – | – | 13 (≈ 25.2 µM)
12 | Cc1nnn(C)c1-c1cnc2c3ccc(C(C)(C)O)cc3n([C@H](c3ccccc3)C3CCOCC3)c2c1 [EZOBRESIB] | – | 3.6 | 11 | 23 | 20 | 40 | 36 | 0.8 | – | – | – | – | – | – | –
